How the values were obtained:
[1] = tested on: THP-1-differentiated macrophages; experiment: Pro-inflammatory cytokine expression in LPS-challenged THP-1-differentiated macrophages; assay type: cell-based, human; design: key to IL-6, significant reduction in culture supernatant vs LPS treatment / TNF-α, significant reduction in culture supernatant vs LPS treatment / IL-1β, significant reduction in culture supernatant vs LPS treatment: “NS” indicates a non-significant reduction in the indicated cytokine; “+” indicates a p value <0.05 in Tukey post test; “++” indicates a p value <0.01 in Tukey post test; details: for IL-1β, significant reduction in culture supernatant vs LPS treatment / IL-6, significant reduction in culture supernatant vs LPS treatment / TNF-α, significant reduction in culture supernatant vs LPS treatment: 20 min pre-treatment, 24 hrs LPS; for expression of IL-1β and TNF-α / expression of IL-6: at at least one tested dose
Experimental: Differentiation with PMA causes THP-1 monocyte cells to acquire functional and morphological resemblance to macrophages. LPS interacts with THP-1 differentiated macrophage through the toll-like receptor 4, triggering the inflammatory response and stimulating pro-inflammatory cytokine release and eventually leading to cellular death. Compounds were tested to determine their anti-inflammatory effects on LPS-challenged macrophage cultures. THP-1-differentiated macrophages were treated with test compounds for 20 minutes, followed by 24 hrs of LPS challenge. Culture supernatants were then collected to analyzed for the presence of pro-inflammatory cytokines: […], interleukin 6 (IL-6) and tumor necrosis factor α (TNF-α).
Cytokine quantification in cell culture supernatants was accomplished by HTRF kits to assess levels of IL-1β (Human IL-1β kit, #62HIL1BPEG, Cisbio) and IL-6 (Human IL-6 kit, 62HIL06PET, Cisbio), and by ELISA to determine the levels of TNF-α (Human TNF-α ELISA kit, KHC3011, ThermoFisher).
Data analysis was performed via 1-way ANOVA with Tukey post-test compared to LPS treatment cultures using Prism statistical software (GraphPad). Tabular data indicates significance of reduction in culture supernatants for the indicated analyte at the indicated doses.

CFA-stimulated rats = experiment: CFA inflammatory pain model, cytokine expression in paw skin; assay type: in vivo; design: key to IFN-γ expression in paw skin, change compared to CFA alone / IL-4 expression in paw skin, change compared to CFA alone / TNF-α expression in paw skin, change compared to CFA alone: NS = no statistically significant change in expression compared to CFA alone; + = statistically significant change in expression compared to CFA alone, p < 0.05; details: day 8
Experimental: Response to peripheral inflammatory stimulus can be modeled by administering complete Freund's adjuvant (CFA), a suspension of desiccated mycobacterium in paraffin oil and mannide monooleate, by subcutaneous injection into the rat's footpad. The introduction of CFA to peripheral tissues leads to a rapid, sustained, inflammatory reaction in the treated tissue within 24 hours. Subcutaneous administration of CFA in the plantar region of the paw induces inflammatory pain behaviors that persist for at least 8 days. CFA treatment also leads to the accumulation of inflammatory cytokines in paw tissue at the site of injury, which, if unresolved, can lead to formation of fibrotic tissue. The extent of inflammatory response to CFA can be assessed by quantification of inflammatory cytokines in paw skin lysate, and inflammatory pain behaviors by mechanical allodynia (von Frey test) and thermal hyperalgesia (Hargreaves test).
In another study, Compounds 1a, 5a, and 6a were similarly tested against CFA-induced inflammatory stimulation in the right hind foot for their ability to reduce pain behaviors. This study also included quantification of inflammatory cytokine expression in paw skin lysate. Inflammatory pain stimulation with CFA injection and assessment of mechanical and thermal pain behaviors were performed as described above, with the exception that only post-dose pain behavior testing is reported.
Intraplantar CFA injection occurred at day 0. Treatment with Compounds 1a, 5a, and 6a occurred at days −2, 1, 3, and 7. At day 8, the rats were terminated and cytokine levels were measured in paw skin and plasma. Tissue from paw bone, joint, and muscle were obtained for H&E staining and analysis. Cytokine levels in test compound-treated animals were compared to CFA-stimulated animals. Analytes included interleukin 4 (IL-4), tumor necrosis factor alpha (TNF-α) and interferon gamma (IFN-γ). Statistical analysis consisted of 1-way ANOVA followed by Dunnett's multiple comparisons post-test. Mechanical allodynia and thermal hyperalgesia were tested 1 hour post-dosing on days 1, 3, and 7. PWT refers to […] paw withdrawal threshold where a higher value corresponds to a higher pain threshold. PWL refers to […] paw withdrawal latency where a higher value corresponds to a higher pain threshold.

MRC-5 cells = experiment: TGFβ-stimulated αSMA expression in MRC-5 cells (HTRF); assay type: cell-based; design: key to Significant reduction in αSMA via HTRF compared to TGFβ alone: NS = no statistically significant change in aSMA expression; + = p < 0.05; ++ = p < 0.01; +++ = p < 0.005; ++++ = p < 0.001; details: for αSMA expression: combined with 0.01 ng/ml HGF; for Significant reduction in αSMA via HTRF compared to TGFβ alone: TGFβ 1 ng/ml, HGF 0.01 ng/ml, 48 h
Method in brief: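 Confluent MRC-5 fibroblasts serum-starved 2 h, then stimulated with TGFβ (final 1 ng/ml). After 2 h, HGF alone or with compound added; αSMA in lysates measured by HTRF after 48 h, relative to TGFβ-stimulated cultures. Dunnett's post-test after 1-way ANOVA.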

| Structure (SMILES) | IL-1β, significant reduction in culture supernatant vs LPS treatment ([1]; 0.1 nM) | IL-6, significant reduction in culture supernatant vs LPS treatment ([1]; 0.1 nM) | TNF-α, significant reduction in culture supernatant vs LPS treatment ([1]; 0.1 nM) | IL-1β, significant reduction in culture supernatant vs LPS treatment ([1]; 10 nM) | IL-6, significant reduction in culture supernatant vs LPS treatment ([1]; 10 nM) | TNF-α, significant reduction in culture supernatant vs LPS treatment ([1]; 10 nM) | IL-1β, significant reduction in culture supernatant vs LPS treatment ([1]; 1000 nM) | IL-6, significant reduction in culture supernatant vs LPS treatment ([1]; 1000 nM) | TNF-α, significant reduction in culture supernatant vs LPS treatment ([1]; 1000 nM) | expression of IL-1β and TNF-α [1] | expression of IL-6 [1] | αSMA expression (MRC-5 cells; 1 uM) | Significant reduction in αSMA via HTRF compared to TGFβ alone (MRC-5 cells; test compound 1 nM) | Significant reduction in αSMA via HTRF compared to TGFβ alone (MRC-5 cells; test compound 1 μM) | also measured |
| --- | --- | --- | --- | --- | --- | --- | --- | --- | --- | --- | --- | --- | --- | --- | --- |
| CCC(C)CN1CC2N(C(=O)c3ccc(C(F)(F)F)cc3)CCC(=O)N2[C@@H](C)C1=O (some centres unmarked) [Compound 1a] | ++ (“++” indicates a p value <0.01 in Tukey post test) | NS | ++ (“++” indicates a p value <0.01 in Tukey post test) | ++ (“++” indicates a p value <0.01 in Tukey post test) | ++ (“++” indicates a p value <0.01 in Tukey post test) | ++ (“++” indicates a p value <0.01 in Tukey post test) | ++ (“++” indicates a p value <0.01 in Tukey post test) | + (“+” indicates a p value <0.05 in Tukey post test) | ++ (“++” indicates a p value <0.01 in Tukey post test) | significantly reduced | significantly reduced | significantly reduced αSMA | NS | ++++ (++++ = p < 0.001) | IFN-γ expression in paw skin, change compared to CFA alone (CFA-stimulated rats; 8 mg/kg PO): + (+ = statistically significant change in expression compared to CFA alone, p < 0.05); IL-4 expression in paw skin, change compared to CFA alone (CFA-stimulated rats; 8 mg/kg PO): + (+ = statistically significant change in expression compared to CFA alone, p < 0.05); TNF-α expression in paw skin, change compared to CFA alone (CFA-stimulated rats; 8 mg/kg PO): + (+ = statistically significant change in expression compared to CFA alone, p < 0.05); IFN-γ expression in paw skin, change compared to CFA alone (CFA-stimulated rats; 16 mg/kg PO): NS; IL-4 expression in paw skin, change compared to CFA alone (CFA-stimulated rats; 16 mg/kg PO): + (+ = statistically significant change in expression compared to CFA alone, p < 0.05); TNF-α expression in paw skin, change compared to CFA alone (CFA-stimulated rats; 16 mg/kg PO): + (+ = statistically significant change in expression compared to CFA alone, p < 0.05) |
| CCC(C)CN1CC2N(Cc3ccc(C(F)(F)F)cc3)CCC(=O)N2[C@@H](C)C1=O (some centres unmarked) [Compound 5a] | ++ (“++” indicates a p value <0.01 in Tukey post test) | NS | NS | ++ (“++” indicates a p value <0.01 in Tukey post test) | + (“+” indicates a p value <0.05 in Tukey post test) | NS | ++ (“++” indicates a p value <0.01 in Tukey post test) | ++ (“++” indicates a p value <0.01 in Tukey post test) | + (“+” indicates a p value <0.05 in Tukey post test) | significantly reduced | significantly reduced | significantly reduced αSMA | + (+ = p < 0.05) | ++++ (++++ = p < 0.001) | IFN-γ expression in paw skin, change compared to CFA alone (CFA-stimulated rats; 10 mg/kg PO): + (+ = statistically significant change in expression compared to CFA alone, p < 0.05); IL-4 expression in paw skin, change compared to CFA alone (CFA-stimulated rats; 10 mg/kg PO): + (+ = statistically significant change in expression compared to CFA alone, p < 0.05); TNF-α expression in paw skin, change compared to CFA alone (CFA-stimulated rats; 10 mg/kg PO): + (+ = statistically significant change in expression compared to CFA alone, p < 0.05); IFN-γ expression in paw skin, change compared to CFA alone (CFA-stimulated rats; 20 mg/kg PO): + (+ = statistically significant change in expression compared to CFA alone, p < 0.05); IL-4 expression in paw skin, change compared to CFA alone (CFA-stimulated rats; 20 mg/kg PO): + (+ = statistically significant change in expression compared to CFA alone, p < 0.05); TNF-α expression in paw skin, change compared to CFA alone (CFA-stimulated rats; 20 mg/kg PO): + (+ = statistically significant change in expression compared to CFA alone, p < 0.05); αSMA expression (MRC-5 cells; 1 nM): significantly reduced αSMA |
